According to ChEMBL document CHEMBL5725682, “Therapeutic inhibitory compounds” (2018):

Key:
[1] = target: Plasma kallikrein (Homo sapiens, UniProt P03952); experiment: In Vitro Enzyme Inhibition of hPK: A 10 mM solution of the test compound was made in DMSO. […] A control tube containing only DMSO is included. […] 50 μL was removed from this mixture and placed into duplicate wells on a Microfluor 1Black U-bottom microtiter plate (Thermo Scientific). This plate was incubated for 5 minutes at 37° C. To each well, 50 μL of pre-warmed 2×PFR-AMC was added to start the enzymatic reaction. Cleavage of PFR-AMC was monitored in a Biotek Synergy H4 reader set at 37° C. Readings are taken every 43 seconds for 1 hour. […] The IC50 is calculated using the Gen5 (Biotek Instruments).
Chain of Plasma kallikrein (P03952 20-390 limits assumed): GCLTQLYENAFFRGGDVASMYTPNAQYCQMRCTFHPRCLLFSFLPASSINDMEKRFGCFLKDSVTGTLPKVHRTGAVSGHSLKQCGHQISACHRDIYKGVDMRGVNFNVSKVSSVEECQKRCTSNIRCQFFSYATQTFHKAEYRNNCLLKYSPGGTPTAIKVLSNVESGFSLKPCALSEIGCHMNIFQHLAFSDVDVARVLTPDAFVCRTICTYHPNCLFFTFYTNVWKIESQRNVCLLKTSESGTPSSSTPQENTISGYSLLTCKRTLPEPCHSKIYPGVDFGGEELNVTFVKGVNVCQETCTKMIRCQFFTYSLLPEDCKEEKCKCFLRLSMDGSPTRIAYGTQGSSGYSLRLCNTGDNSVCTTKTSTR
Chain of Plasma kallikrein (P03952 391-638 limits assumed): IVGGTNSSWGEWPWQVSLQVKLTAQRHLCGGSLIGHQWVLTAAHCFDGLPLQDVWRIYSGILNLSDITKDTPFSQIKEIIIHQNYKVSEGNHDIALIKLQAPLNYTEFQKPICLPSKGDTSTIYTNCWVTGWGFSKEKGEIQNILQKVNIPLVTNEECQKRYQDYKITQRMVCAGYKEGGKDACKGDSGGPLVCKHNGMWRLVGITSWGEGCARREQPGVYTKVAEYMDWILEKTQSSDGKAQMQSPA

[2] = In Vitro Contact Cellular Assay: The test compounds at various concentrations, also prepared by serial dilutions as described above, are added to the test wells. The volume of test compound added to each test well was 12.5 μL, to yield final concentrations of 20 μM, 5 μM, 1.25 μM, 312.5 nM, 78.125 nM, 19.531 nM, 4.883 nM, 1.221 nM, 0.305 nM, and 0.076 nM. Each test compound concentration was tested in duplicates.In addition to the inhibitor control and test wells, the 96 well assay plate includes positive control wells which contained the mixture of human plasma and ellagic acid without C1NH inhibitor or test compounds, and background wells which contained neither the mixture of human plasma and ellagic acid nor the test compounds. The total volume of liquid in positive control and background wells was brought up to 35 μL, using the assay buffer.The assay plate containing C1NH inhibitors and test compounds mixed with human plasma and ellagic acid and appropriate controls was incubated at 37° C. for 5 min. A 10 mM stock solution of substrate Z-FR-2-AMC was diluted to 133.2 μM in the assay buffer, and 15 μL of the diluted substrate was added to each well, to yield a final substrate concentration of 40 μM in each well. The reagents were mixed well by shaking the plate gently for 30 sec.The enzyme reaction was quantified by immediate kinetic reading of the assay plate using excitation/emission wavelengths of 330 nm/440 nm respectively. Fluorescence intensity was recorded for 60 min, using a time interval of 43 sec.The inhibition activity of the test compounds were evaluated using the EC50 values, calculated according to the dose-response curve of the test compounds, fitted using the log(inhibitor)−response (variable slope)¿ equation in GraphPadPrism software (GraphPad Software, Inc.).

Cc1nc(N)ccc1CNC(=O)c1ccnc(Cc2ccc3ncc(C4CC4)cc3c2)c1
IC50 [1]: < 100 nM | EC50 [2]: < 100 nM

Cc1nc2c(cc1CNC(=O)c1ccnc(Cc3ccc4ncc(Cl)cc4c3)c1)CNC2
IC50 [1]: > 10000 nM

Cc1cc(C(=O)NCc2c(C)cc(N)nc2C)cc(Cc2ccc3ncc(Cl)cc3c2)n1
EC50 [2]: < 100 nM

Cc1cc(N)nc(C)c1CNC(=O)c1cc(Cc2ccc3ncc(Cl)cc3c2)nc(C(N)=O)c1
EC50 [2]: in the range around 550 nM

Cc1cc(N)nc(C)c1CNC(=O)c1ccnc(Cc2cccc(-c3noc(=O)[nH]3)c2)c1
IC50 [1]: > 10000 nM

Nc1nccc2cc(CNC(=O)c3ccnc(Cc4ccc5ncc(N6CCCC6)cc5c4)c3)ccc12
IC50 [1]: < 100 nM

Cc1cc(N)nc(C)c1CNC(=O)c1ccnc(Cc2ccc3ncc(CC(F)F)cc3c2)c1
IC50 [1]: < 100 nM | EC50 [2]: < 100 nM

Nc1nccc2cc(CNC(=O)c3ccnc(Cc4ccc5ncc(Cl)cc5c4)c3)ccc12
EC50 [2]: < 100 nM
